Data set [1] addresses T1, OGA (Homo sapiens, UniProt O60502).
T1 construct: HEK293 cells inducible for P301L mutant human Tau (isoform 2N4R) were established at Janssen; endogenous in cells; host or cells: HEK293 cells inducible for P301L mutant human Tau (2N4R)
T1 sequence (O60502 1-916): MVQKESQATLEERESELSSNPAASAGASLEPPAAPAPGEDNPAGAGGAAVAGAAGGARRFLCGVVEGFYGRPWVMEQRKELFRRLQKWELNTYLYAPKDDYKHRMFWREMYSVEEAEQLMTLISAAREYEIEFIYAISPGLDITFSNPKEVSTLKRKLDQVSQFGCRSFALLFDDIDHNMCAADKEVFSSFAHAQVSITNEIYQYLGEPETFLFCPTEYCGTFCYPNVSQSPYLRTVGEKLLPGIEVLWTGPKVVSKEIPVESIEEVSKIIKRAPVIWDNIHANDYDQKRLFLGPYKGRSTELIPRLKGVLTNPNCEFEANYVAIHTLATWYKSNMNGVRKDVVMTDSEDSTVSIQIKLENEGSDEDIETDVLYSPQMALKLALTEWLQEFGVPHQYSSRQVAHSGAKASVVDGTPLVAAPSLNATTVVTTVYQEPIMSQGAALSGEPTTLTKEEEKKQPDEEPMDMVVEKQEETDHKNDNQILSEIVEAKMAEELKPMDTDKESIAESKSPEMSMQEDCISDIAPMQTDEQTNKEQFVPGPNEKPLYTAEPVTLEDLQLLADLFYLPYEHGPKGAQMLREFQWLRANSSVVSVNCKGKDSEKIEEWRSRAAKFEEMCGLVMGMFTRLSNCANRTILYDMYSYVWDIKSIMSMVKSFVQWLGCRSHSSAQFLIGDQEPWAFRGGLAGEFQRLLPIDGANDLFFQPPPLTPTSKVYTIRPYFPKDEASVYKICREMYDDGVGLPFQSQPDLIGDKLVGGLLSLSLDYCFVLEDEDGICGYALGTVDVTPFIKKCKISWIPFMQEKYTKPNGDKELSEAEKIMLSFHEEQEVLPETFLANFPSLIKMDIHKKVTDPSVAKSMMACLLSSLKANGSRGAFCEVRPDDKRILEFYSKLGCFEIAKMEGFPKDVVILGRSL
Description: OGA cellular assay (ICC detection of O-GlcNAcylated proteins in HEK293 cells inducible for P301L mutant human Tau). Particulars: 6 hours incubation; for Emax: HEK293, HEK293 cells inducible for P301L mutant human Tau, maximum = Thiamet G 200 uM; for EC50: HEK293 cells inducible for P301L mutant human Tau, read-out: Cellular hOGA, pEC50 (converted). Type of data set: cell-based. In a few lines: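 HEK293 cells with inducible P301L 2N4R Tau, seeded in low-glucose medium, were exposed to compounds for 6 hours (0.2% DMSO), then PFA-fixed and stained with CTD110.6. Imaging intensity at 488 nm measured O-GlcNAcylation, with Hoechst nuclei counts for toxicity. IC50s came from non-linear regression, with Thiamet G at 200 uM as maximum inhibition.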

As usually defined, the Emax is the greatest response seen or fitted, relative to the assay's reference. Usually melting point stands for the temperature, or range, at which the solid turns liquid.

SMILES strings stand for the structures.

Take `Cc1cc(OC2CCN([C@@H](C)c3nc4nc(C)sc4cc3F)CC2)cc(C)n1` (single isomer, unassigned) [Compound 83]: in data set [1], the maximal response (Emax) is 86% and the EC50 was 31.6 nM.
In the same order, the values of `Cc1cc(OC2CCN([C@H](C)c3nc4c(cc3F)CCO4)CC2)cc(C)n1` (single isomer, unassigned) [Compound 144] are 81% and 10 nM.
In the same order, the values of `Cc1cc(OC2CCN([C@H](C)c3nc4c(cc3F)OCCO4)CC2)cc(C)n1` (single isomer, unassigned) [Compound 148] are 82% and 50.1 nM.
Consider `Cc1ncc(OC2CCN(C(C)c3nc4c(cc3F)CCO4)CC2)cn1` (stereo not drawn) [Compound 95], for which the melting point stood at 127.82 °C. Besides, in data set [1], the Emax stood at 92% and the EC50 was 39.8 nM.
